Measured values published in patent US7090996B2, “Process for examining membrane enclosed biocompartments” (Micronas GmbH, priority 2000, dated 2006).

Tested on: biocompartments 1 (biological cells)
Experiment: Micro-flow chamber ISFET measurement of acidification and respiratory activity of biocompartments
Format: cell-based
Conditions: for acidification ΔpH−31 activated by the biocompartments / respiratory activity of the biocompartments: agent in culture medium, stand-still phase of pump, compared with agent-free medium (FIG. 5)
Source text: In a process for the examining of membrane enclosed biocompartments, biocompartments 1 were designed as biological cells placed in a micro-flow chamber 2. […] The space 3 is provided with an inlet opening 4 and an exit opening 5 for nutrient or culture medium. The chamber housing has a chamber base part 6 and a top part 7 which fits said base part 6 and the two parts are sealed liquid tight to one another by an interposed sealing ring 8.
The inlet opening 4 of the measurement space is connected to the measuring space 3 by a feed conduit 9, which in turn is connected to a culture medium supply 10. A pump 11 is placed in the feed canal 9 for the transport of the culture medium. The pump 11 can be turned on and off by means of a control apparatus (not shown). The exit opening 5 of the micro-flow chamber 2 is joined by means of a connecting line 12, to an exhaust opening 13 for release of the culture medium. In the measuring space 3, the biocompartments 1 stand in contact with the culture medium.
In the base of the measuring space 3, are placed a plurality of ISFET's 14. […] Between drain 16 and source 17, is a gate 18. Gate 18, drain 16 and source 17 are electrically insulated from the measurement space 3 by means of a silicon nitride layer (not shown). The silicon nitride layer forms on its side remote from the gate 18, an active sensor layer. By means of which layer, the ISFET 14 is controllable through the hydrogen ions present in the culture medium. Gate 18, drain 16 and source 17 of the ISFET are connected with a known evaluation apparatus for the determination of the pH value of the culture medium which is somewhat proportional to measurement signal of the respective ISFET 14.
As is particularly well presented in FIG. 2, an electrode 19 is placed in close proximity to the gates 18. This electrode 19 is constructed of a noble metal, such as palladium and is in direct contact with the culture medium.
A reference electrode 20 is paired with the operational electrode 19, which contacts the culture medium at a spatial distance from the ISFET 14. […] The reference electrode 20 and the operational electrodes 19 can be connected to an electrical source of potential for the application of an electric potential on the culture medium.
By means of the above described measurement arrangement, the respiratory activities of the biocompartments 1 can be indirectly measured. To carry out this purpose, the pump 11, which acts to transport the through-put of the culture medium through the measurement space 3, is temporarily stopped. In FIG. 4, the period of time during which the through-put in the measurement space 3 is stopped, is designated as the time T1 (stopping the pump 11) and T2 (starting the pump 11). This time interval can run, for instance, some 8 minutes.
Subsequently, by means of the ISFET 14, a first pH−1 is measured for the pH value of the culture medium, preparatory to a first pH measurement pair. […] When this occurs, this potential preferably is set at some −700 to −800 millivolts. In the embodiment of FIG. 3, this potential is applied to the electrodes 19, 20. The surface of the operational electrode 19 exposed to contact with the culture medium is chosen to be as small as possible with potential measuring preferably less than 1000 μm^2, so that, during the application of electrical voltage, the consumption of oxygen at the operational electrode 19 will be held at the lowest possible level. […]

O=C(O)CI [iodine acetate]
acidification ΔpH−31 activated by the biocompartments: recedes
respiratory activity of the biocompartments: increase

Triton®
viability of the biocompartments (agent in culture medium (FIG. 7)): dying out
acidification ΔpH−31 activated by the biocompartments: no longer influence the culture medium
respiratory activity of the biocompartments: no further sign of respiratory activity
